Values of other authors as cited in patent US20060139426A1, “Ink, ink set, processing solution, recording method, recording medium, ink tank, and recording device” (Fuji Xerox Co., Ltd., priority 2004, published 2006).

pKa: 2.4
SMILES: O=C(O)c1ccco1 [2-Furancarboxylic acid]
